From patent US5922871A, “Terephthalamide derivatives” (Dongwha Pharmaceutical Ind. Co., Ltd., priority 1997, dated 1999)

Columns and labels:
[1] = molecular target: T1, HIV reverse transcriptase (HIV-RT) (Human immunodeficiency virus type 1 group M subtype B, UniProt P04585); test: in vitro inhibition test against HIV reverse transcriptase; type: biochemical, HIV (AIDS virus); details: read-out: Inhibitory effect of HIV-RT; for inhibition at 0.1 µg/mL: 0.1 μg/ml; for inhibition at 1 µg/mL: 1 μg/ml
T1 construct: purchased Boehringer Mannheim
Procedure: Experiment 3: The in vitro inhibition test against HIV reverse transcriptase
The inhibitory activity in vitro was measured using a non-radioactive reverse transcriptase assay Kit (Boehringer Mannheim).
At first, 20 μl(40 ng) HIV-RT was added to the wells coated with streptavidin and with the addition of 20 μl, reaction mixture containing template/primer hybrid poly(A)/oligo(dT)15 and DIG-(digoxigenin)-dUTP, biotin-dUTP and TTP, 20 μl test compound was added and reacted at 37° C. for 1 hour. The control without test compound was used for the comparison of related activity. Since DNA containing nucleotide labeled with digoxigenin and biotine was prepared by the action of HIV-RT, it was combined with streptavidin coated at the bottom of the wells. After the reaction was completed, remaining impurities were removed by washing each well with 20 μl buffer solution (pH 7.0) for 30 seconds 5 times and with the addition of 200 μl anti-DIG-POD antibody, the mixture was reacted at 37° C. for 1 hour. For the removal of remaining impurities again, the reacting solution was washed with a buffer solution and with the addition of 200μl ABTS™ each, a substrate of POD(peroxidase), the solution was reacted at room temperature for 30 minutes. The absorbance was read by ELISA reader at 405 nm for the assay of reverse transcriptase activity and its inhibition activity.

[2] = molecular target: T2, HBV polymerase reverse transcriptase (HBV-RT) (Hepatitis B virus genotype D subtype ayw, UniProt P03156); test: inhibitory activity against HBV polymerase in vitro (reverse transcriptase activity); type: biochemical; details: read-out: Inhibitory effect of HBV-RT; for inhibition at 0.1 µg/mL: 0.1 μg/ml; for inhibition at 1 µg/mL: 1 μg/ml
T2 construct: made in house; host or cells: E. coli
T2 sequence (P03156 whole entry): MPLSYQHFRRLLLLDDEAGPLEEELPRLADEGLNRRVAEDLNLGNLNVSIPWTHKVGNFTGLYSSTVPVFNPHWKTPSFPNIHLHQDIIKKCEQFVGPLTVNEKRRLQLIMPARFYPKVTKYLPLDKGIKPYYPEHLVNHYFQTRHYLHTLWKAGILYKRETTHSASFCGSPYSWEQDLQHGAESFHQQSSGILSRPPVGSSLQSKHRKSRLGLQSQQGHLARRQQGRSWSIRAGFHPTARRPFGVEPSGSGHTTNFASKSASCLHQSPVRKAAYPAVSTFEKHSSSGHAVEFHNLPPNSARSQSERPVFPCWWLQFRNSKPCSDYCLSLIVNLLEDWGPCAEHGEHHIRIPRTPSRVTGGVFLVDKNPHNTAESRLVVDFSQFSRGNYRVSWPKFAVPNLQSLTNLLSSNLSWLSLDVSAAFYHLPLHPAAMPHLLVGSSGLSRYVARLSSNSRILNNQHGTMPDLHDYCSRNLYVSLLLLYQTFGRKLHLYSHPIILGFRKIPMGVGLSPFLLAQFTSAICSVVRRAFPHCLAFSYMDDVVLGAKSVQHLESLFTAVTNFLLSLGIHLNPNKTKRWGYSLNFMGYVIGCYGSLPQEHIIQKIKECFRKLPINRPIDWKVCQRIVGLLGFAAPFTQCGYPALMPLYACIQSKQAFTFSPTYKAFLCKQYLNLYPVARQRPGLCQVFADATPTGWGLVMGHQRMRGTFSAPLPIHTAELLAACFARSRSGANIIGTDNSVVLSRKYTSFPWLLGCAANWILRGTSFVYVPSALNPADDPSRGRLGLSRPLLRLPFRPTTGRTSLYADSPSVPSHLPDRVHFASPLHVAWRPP
Text: Experiment 1: The inhibitory activity against HBV polymerase in vitro.
Recently, the inventors of the present invention have produced a recombinant HBV polymerase that is expressed from E.coli transformant, measured its enzyme activity and filed patent applications thereof [Korean Patent Application Nos. 94-3918, 96-33998 and 96-63255].
The inventions have established a method of measuring the reverse transcriptase activity of HBV polymerase in vitro. The fundamental principle is the same as the ELISA method, and after reacting the substrate with biotin- and DIG-modified nucleotide, a method of recognizing the polymerized substrate as anti-DIG antibody with peroxidase was used. […] and 20 μ of test compound were mixed and reacted at 14~30° C. for 18~24 hours. Then, the inhibitory effect of test compound against reverse trascriptase activity in the HBV polymerase was examined, compared with the results of control tests without the test compound.

inhibition at 0.1 µg/mL [2] [%]	inhibition at 1 µg/mL [2] [%]	Structure (SMILES)	inhibition at 0.1 µg/mL [1] [%]	inhibition at 1 µg/mL [1] [%]
–	–	CCCN(CCO)C(=O)c1ccc(C(=O)N2CCN(c3ncccc3NC(C)C)CC2)cc1 [Compound No. 7, 1-[N-(2-Hydroxyethyl)-N-propylcarbamoyl]-4-[1-[3-(isopropylamino)-2-pyridyl]piperazin-4-yl-carbonyl]benzene]	21	60
55	70	CCN(CC)C(=O)c1ccc(C(=O)N2CCN(c3ncccc3NC(C)C)CC2)cc1 [Compound No. 13, 1-[N,N-Diethylcarbamoyl]-4-[1-[3-(isopropylamino)-2-pyridyl]piperazin-4-yl-carbonyl]benzene]	–	–
–	–	CC(C)Nc1cccnc1N1CCN(C(=O)c2ccc(C(=O)N(C(C)C)C(C)C)cc2)CC1 [Compound No. 14, 1-[N,N-Bis(1-methylethyl)carbamoyl]-4-[1-[3-(isopropylamino)-2-pyridyl]piperazin-4-yl-carbonyl]benzene]	52	59
–	–	CC(C)Nc1cccnc1N1CCN(C(=O)c2ccc(C(=O)NCCOCCO)cc2)CC1 [Compound No. 17, 1-[N-[2-(2-Hydroxyethoxy)ethyl]carbamoyl]-4-[1-[3-(isopropylamino)-2-pyridyl]piperazin-4-yl-carbonyl]benzene]	35	53
28	63	CCNc1cccnc1N1CCN(C(=O)c2ccc(C(=O)N(CC)CCO)cc2)CC1 [Compound No. 18, 1-[N-Ethyl-N-(2-hydroxyethyl)carbamoyl]-4-[1-[3-(ethylamino)-2-pyridyl]piperazin-4-yl-carbonyl]benzene]	–	–
43	58	CC(C)Nc1cccnc1N1CCN(C(=O)c2ccc(C(=O)N3CCN(C)CC3)cc2)CC1 [Compound No. 20, 1-[4-[1-[3-(Isopropylamino)-2-pyridyl]piperazin-4-yl-carbonyl]benzoyl]-4-methylpiperazine]	–	–
–	–	CCN1CCN(C(=O)c2ccc(C(=O)N3CCN(c4ncccc4NC(C)C)CC3)cc2)CC1 [Compound No. 21, 4-Ethyl-1-[4-[1-[3-(isopropylamino)-2-pyridyl]piperazin-4-yl-arbonyl]benzoyl]piperazine]	20	64
37	69	CCNc1cccnc1N1CCN(C(=O)c2ccc(C(=O)N3CCN(CCO)CC3)cc2)CC1 [Compound No. 33, 1-[4-[1-[3-(Ethylamino)-2-pyridyl]piperazin-4-yl-carbonyl]benzoyl]-4-(2-hydroxyethyl)piperazine]	–	–
62	82	CC(C)Nc1cccnc1N1CCN(C(=O)c2ccc(C(=O)N[C@@H](C)CO)cc2)CC1 [Compound No. 35, 1-[N-[(1S)-2-Hydroxy-1-methylethyl]carbamoyl]-4-[1-[3-(isopropylamino)-2-pyridyl]piperazin-4-yl-carbonyl]benzene]	–	–
–	–	CC(C)Nc1cccnc1N1CCN(C(=O)c2ccc(C(=O)N[C@H](CO)CC3CCCCC3)cc2)CC1 [Compound No. 47, 1-[N-[(1S)-1-(Cyclohexylmethyl)-2-hydroxyethyl]carbamoyl]-4-[1-[3-(isopropylamino)-2-pyridyl]piperazin-4-yl-carbonyl]benzene]	43	54
58	76	CC(C)Nc1cccnc1N1CCN(C(=O)c2ccc(C(=O)NC[C@H](C)O)cc2)CC1 [Compound No. 56, 1-[N-[(2S)-2-Hydroxypropyl]carbamoyl]-4-[1-[3-(isopropylamino)-2-pyridyl]piperazin-4-yl-carbonyl]benzene]	–	–
51	63	CC(C)Nc1cccnc1N1CCN(C(=O)c2ccc(C(=O)NCC3CCCO3)cc2)CC1 (stereo not shown) [Compound No. 72, 4-[1-[3-(Isopropylamino)-2-pyridyl]piperazin-4-yl-carbonyl]-1-[N-[(tetrahydrofuran-2-yl)methyl]carbamoyl]benzene]	–	–
–	–	CC(C)Nc1cccnc1N1CCN(C(=O)c2ccc(C(=O)N3CCSCC3)cc2)CC1 [Compound No. 77, 4-[1-[3-(Isopropylamino)-2-pyridyl]piperazin-4-yl-carbonyl]-1-(thiomorpholin-4-yl-carbonyl)benzene]	28	40
–	–	CC(C)Nc1cccnc1N1CCN(C(=O)c2ccc(C(=O)NCCN3CCCCC3)cc2)CC1 [Compound No. 81, 4-[1-[3-(Isopropylamino)-2-pyridyl]piperazin-4-yl-carbonyl]-1-[N-[2-(piperidin-1-yl)ethyl]carbamoyl]benzene]	32	60

Structure (SMILES)	inhibition at 0.1 µg/mL [2] [%]	inhibition at 1 µg/mL [2] [%]	inhibition at 0.1 µg/mL [1] [%]	inhibition at 1 µg/mL [1] [%]
CC(C)Nc1cccnc1N1CCN(C(=O)c2ccc(C(=O)NCCCO)cc2)CC1 [Compound No. 2, 1-[N-(3-Hydroxypropyl)carbamoyl]-4-[1-[3-(isopropylamino)-2-pyridyl]piperazin-4-yl-carbonyl]benzene]	34	42	35	40
CC(C)Nc1cccnc1N1CCN(C(=O)c2ccc(C(=O)N(C)CCO)cc2)CC1 [Compound No. 5, 1-[N-(2-Hydroxyethyl)-N-methylcarbamoyl]-4-[1-[3-(isopropylamino)-2-pyridyl]piperazin-4-yl-carbonyl]benzene]	40	48	43	71
CC(C)Nc1cccnc1N1CCN(C(=O)c2ccc(C(=O)N(CCO)c3ccccc3)cc2)CC1 [Compound No. 11, 1-[N-(2-Hydroxyethyl)-N-phenylcarbamoyl]-4-[1-[3-(isopropylamino)-2-pyridyl]piperazin-4-yl-carbonyl]benzene]	20	76	43	50
CC(O)CN(CC(C)O)C(=O)c1ccc(C(=O)N2CCN(c3ncccc3NC(C)C)CC2)cc1 (stereo not shown) [Compound No. 16, 1-[N,N-Bis(2-hydroxypropyl)carbamoyl]-4-[1-[3-(isopropylamino)-2-pyridyl]piperazin-4-yl-carbonyl]benzene]	45	78	52	65
CC(C)Nc1cccnc1N1CCN(C(=O)c2ccc(C(=O)N3CCN(CCOCCO)CC3)cc2)CC1 [Compound No. 32, 4-[2-(2-Hydroxyethoxy)ethyl]-1-[4-[1-[3-(isopropylamino)-2-pyridyl]piperazin-4-yl-carbonyl]benzoyl]piperazine]	40	71	27	58
CC(C)Nc1cccnc1N1CCN(C(=O)c2ccc(C(=O)NC(C)(C)CO)cc2)CC1 [Compound No. 34, 1-[N-(1,1-Dimethyl-2-hydroxyethyl)carbamoyl]-4-[1-[3-(isopropylamino)-2-pyridyl]piperazin-4-yl-carbonyl]benzene]	41	53	43	51
